For 28 compounds, inhibition results are on record in patent publication US8178688B2, “Benzamidine derivatives, process for the preparation thereof and pharmaceutical composition comprising the same” (Dong Wha Pharmaceutical Co., Ltd., priority 2004, dated 2012).

The first experiment has as its system osteoclast differentiation. Description: Inhibitory effects on osteoclast differentiation (co-culture of bone marrow cells with osteoblast, TRAP staining). In kind it is cell-based, mice. The note with it: Mus musculus, Osteoclast, 168 h, read-out: % inhibitory activity on osteoclastogenesis. As for the experimental part: The effect of benzamidine derivatives of the present invention on osteoclast proliferation and differentiation process was evaluated via co-culture with osteoblast.
Tibia and Femora were aseptically ectomized from male ddY mice of 6-8 weeks to harvest bone marrow cells by using a syringe (21G, Korea Green Cross).
The bone marrow cells were suspended in 5 mL α-MEM medium (Gibco BRL Co.) containing sodium bicarbonate (2.0 g/L), streptomycin (100 mg/L) and penicillin ([…]). The harvested cells were centrifuged at 600×g for 5 mins to collect the whole quantity. To remove the red blood cells within bone marrow cells, 3 mL of Tris HCl (0.83% NH4Cl, pH7.5) was added and well mixed. After centrifuging above cells, the numbers of bone marrow cells were counted and then, the bone marrow cells were immediately used for co-culture system with osteoblast.
The calvaria were aseptically ectomized from neonate ICR mice of 1˜2 days, washed with PBS solution and incubated with a mixture of enzyme solution (0.2% collagenase and 0.1% dispase) at 37° C. gentle shaker. This procedure was sequentially repeated (10, 10, 10, 20, 20 and 20 mins), and then the calvaria cells having the characteristics of osteoblast mostly released from III-VI digestion groups were collected and washed with the medium (serum-free α-MEM). The washed cells were cultivated in α-MEM medium containing 10% FBS for 2˜3 days. After subculturing, these cells were used for this experiment, and diluted to reach the concentration of 1×10^6 cell/mL for storage at −70° C.
Benzamidine derivatives of the present invention were dissolved in a sterile distilled water or ethanol to make desired concentrations following dilution. The final volume of specimen added to the medium was determined at the ratio of 1:1000.
Bone marrow cells prepared, in the above and osteoblast from calvaria were co-cultured for osteoclast differentiation. Both bone marrow cells (25,000 cells/cm^2) and osteoblast (10,000 cells/cm^2) were plated on a 96 well plate in α-MEM medium containing FBS with specimen, and then cultured with test materials for 7 days. Differentiation factors, such as dexamethasone (10^−7M) and vitamin D3 (10^−8M), were also continuously added to the medium from the first day of cultivation. The medium was changed with fresh media containing a mixture of specimens and differentiation factors every 2˜3 day.
TRAP was used as a marker to measure osteoclast in consideration of its characteristics showing a positive reaction to TRAP staining solution. TRAP staining solution was prepared in a manner that 5 mg of naphtol AS-MS phosphate (sigma N-4875), a substrate and 25 mg of coloring agent (Fast Red Violet LB salt) were dissolved in N,N-dimethylformamide (about 0.5 mL), 0.1N NaHCO3 buffer solution (50 mL) containing 50 mM tartaric acid was added, and the reaction mixture was stored at refrigerator prior to use.
After culturing the cells for 7 days, the medium was removed from the wells, the cells were once washed with PBS solution and fixed to PBS containing 10% formalin for 2˜5 mins. The cells were fixed again in a mixed solution of ethanol and acetone (1/1) for about 1 min, and dried off. The cells were further treated by TRAP staining solution for 15 mins and washed with PBS. The experimental results were measured by counting the number of osteoclasts with 3 or more nuclei showing TRAP-positive reaction under a microscopic examination. Each of tests was confirmed over three times for gaining more reliable data.
As shown in the following table 7, the inhibitory effect of each experimental group on the differentiation of osteoclast versus controls was expressed by inhibitory percentage value.
`CCCN1CCC(c2nc(-c3ccc(OCCCCCOc4ccc(C(=N)NO)cc4)cc3)c(C)s2)CC1` [Example 72, N-hydroxy-4-(5-[4-(5-methyl-2-(1-propyl-piperidin-4-yl)-1,3-thiazol-4-yl)phenoxy]pentoxy)-benzamidine]: the inhibition at 1 µM turned out to be 67.9%.

Take `CC(C)c1sc(C2CCCNC2)nc1-c1ccc(OCCCCCOc2ccc(C(=N)NO)cc2)cc1` (stereo not shown) [Example 83, N-hydroxy-4-(5-[4-(5-isopropyl-2-(piperidin-3-yl)-1,3-thiazol-4-yl)phenoxy]pentoxy)-benzamidine]: the inhibition at 1 µM is 23.8%.

The same experiment, now with this note: Mus musculus, Osteoclast, 168 h; 1 m; co-culture of bone marrow cells and osteoblast, 7 days, TRAP-positive osteoclasts versus controls; read-out: % inhibitory activity on osteoclastogenesis.
Regarding `CC(C)c1sc(CN2CCOCC2)nc1-c1ccc(OCCCCCOc2ccc(C(=N)NO)cc2)cc1` [Example 70, N-hydroxy-4-(5-[4-(5-isopropyl-2-morpholinomethyl-1,3-thiazol-4-yl)phenoxy]pentoxy)-benzamidine], the inhibition at 1 µM was 32.7%.

Regarding `CC(C)c1sc(CN)nc1-c1ccc(OCCCCCOc2ccc(C(=N)NO)cc2)cc1` [Example 73, N-hydroxy-4-(5-[4-(5-isopropyl-2-aminomethyl-1,3-thiazol-4-yl)phenoxy]pentoxy)-benzamidine], the inhibition at 1 µM was found to be 54.2%.

In the case of `C=Cc1sc(C)nc1-c1ccc(OCCCCCOc2ccc(C(=N)NO)cc2)cc1` [Example 74, N-hydroxy-4-(5-[4-(5-vinyl-2-methyl-1,3-thiazol-4-yl)phenoxy]pentoxy)-benzamidine], the inhibition at 1 µM is 92.6%.

For `Cc1nc(-c2ccc(OCCCCCOc3ccc(C(=N)NO)cc3)cc2)c(CO)s1` [Example 75, N-hydroxy-4-(5-[4-(5-hydroxymethyl-2-methyl-1,3-thiazol-4-yl)phenoxy]pentoxy)-benzamidine], the inhibition at 1 µM turned out to be 40.2%.

Turning to `COCc1sc(C)nc1-c1ccc(OCCCCCOc2ccc(C(=N)NO)cc2)cc1` [Example 76, N-hydroxy-4-(5-[4-(5-methoxymethyl-2-methyl-1,3-thiazol-4-yl)phenoxy]pentoxy)-benzamidine], the inhibition at 1 µM was 99%.

Take `N=C(NO)c1ccc(OCCCCCOc2ccc(-c3nc(N)sc3CCCl)cc2)cc1` [Example 77, N-hydroxy-4-(5-[4-(5-(2-chloroethyl)-2-amino-1,3-thiazol-4-yl)phenoxy]pentoxy)-benzamidine]: the inhibition at 1 µM was 83.3%.

`C=Cc1sc(N)nc1-c1ccc(OCCCCCOc2ccc(C(=N)NO)cc2)cc1` [Example 78, N-hydroxy-4-(5-[4-(5-vinyl-2-amino-1,3-thiazol-4-yl)phenoxy]pentoxy)-benzamidine]: the inhibition at 1 µM came out at 97.5%.

With `C=Cc1sc(-c2cccnc2)nc1-c1ccc(OCCCCCOc2ccc(C(=N)NO)cc2)cc1` [Example 79, N-hydroxy-4-(5-[4-(5-vinyl-2-(pyridin-3-yl)-1,3-thiazol-4-yl)phenoxy]pentoxy)-benzamidine], the inhibition at 1 µM came out at 96.4%.

With `N=C(NO)c1ccc(OCCCCCOc2ccc(-c3nc(-c4cccnc4)sc3CCCl)cc2)cc1` [Example 80, N-hydroxy-4-(5-[4-(5-(2-chloroethyl)-2-(pyridin-3-yl)-1,3-thiazol-4-yl)phenoxy]pentoxy)-benzamidine], the inhibition at 1 µM worked out at 96.4%.

For `N=C(NO)c1ccc(OCCCCCOc2ccc(-c3nc(N)sc3C3CCCC3)cc2)cc1` [Example 81, N-hydroxy-4-(5-[4-(2-amino-5-cyclopentyl-1,3-thiazol-4-yl)phenoxy]pentoxy)-benzamidine], the inhibition at 1 µM came to 29.5%.

With `CCc1sc(CN)nc1-c1ccc(OCCCCCOc2ccc(C(=N)NO)cc2)cc1` [Example 82, N-hydroxy-4-(5-[4-(5-ethyl-2-aminomethyl-1,3-thiazol-4-yl)phenoxy]pentoxy)-benzamidine], the inhibition at 1 µM was 8.9%.

Regarding `CCNc1nc(-c2ccc(OCCCCCOc3ccc(C(=N)NO)cc3)cc2)cs1` [Example 84, N-hydroxy-4-(5-[4-(2-ethylamino-1,3-thiazol-4-yl)phenoxy]pentoxy)-benzamidine], the inhibition at 1 µM is 100%.

`CCS(=O)(=O)Nc1nc(-c2ccc(OCCCCCOc3ccc(C(=N)NO)cc3)cc2)cs1` [Example 85, N-hydroxy-4-(5-[4-(2-ethanesulfonylamino-1,3-thiazol-4-yl)phenoxy]pentoxy)-benzamidine]: the inhibition at 1 µM was determined as 5.3%.

Turning to `N=C(NO)c1ccc(OCCCCCOc2ccc(-c3nc(NC(=O)c4cccnc4)sc3CC3CCCC3)cc2)cc1` [Example 89, N-hydroxy-4-(5-[4-(5-cyclopentylmethyl-2-(3-pyridylcarbonyl)amino-1,3-thiazol-4-yl)phenoxy]pentoxy)-benzamidine], the inhibition at 1 µM worked out at 81.2%.

As to `Cc1sc(NC(=O)CO)nc1-c1ccc(OCCCCCOc2ccc(C(=N)NO)cc2)cc1` [Example 90, N-hydroxy-4-(5-[4-(2-hydroxyacetylamino-5-methyl-1,3-thiazol-4-yl)phenoxy]pentoxy)-benzamidine], the inhibition at 1 µM turned out to be 61.9%.

`Cc1sc(NC(=O)c2cccnc2)nc1-c1ccc(OCCCCCOc2ccc(C(=N)NO)cc2)cc1` [Example 92, N-hydroxy-4-(5-[4-(5-methyl-2-(3-pyridylcarbonyl)amino-1,3-thiazol-4-yl)phenoxy]pentoxy)-benzamidine]: the inhibition at 1 µM was 49%.

Consider `COCCNc1nc(-c2ccc(OCCCCCOc3ccc(C(=N)NO)cc3)cc2)c(C)s1` [Example 94, N-hydroxy-4-(5-(4-(2-(2-methoxyethyl)amino-5-methyl-1,3-thiazol-4-yl)phenoxy]pentoxy)-benzamidine], for which the inhibition at 1 µM was 77.2%.

With `CCc1sc(NS(=O)(=O)CC)nc1-c1ccc(OCCCCCOc2ccc(C(=N)NO)cc2)cc1` [Example 95, N-hydroxy-4-(5-[4-(2-ethanesulfonylamino-5-ethyl-1,3-thiazol-4-yl)phenoxy]pentoxy)-benzamidine], the inhibition at 1 µM is 47.1%.

Regarding `CCNc1nc(-c2ccc(OCCCCCOc3ccc(C(=N)NO)cc3)cc2)c(CC)s1` [Example 97, N-hydroxy-4-(5-[4-(5-ethyl-2-ethylamino-1,3-thiazol-4-yl)phenoxy]pentoxy)-benzamidine], the inhibition at 1 µM is 42.6%.

For the compound `CCc1sc(NC(=O)c2cccnc2)nc1-c1ccc(OCCCCCOc2ccc(C(=N)NO)cc2)cc1` [Example 101, N-hydroxy-4-(5-[4-(5-ethyl-2-(3-pyridylcarbonyl)amino-1,3-thiazol-4-yl)phenoxy]pentoxy)-benzamidine], the inhibition at 1 µM was determined as 43.7%.

Consider `CCc1sc(NCCOC)nc1-c1ccc(OCCCCCOc2ccc(C(=N)NO)cc2)cc1` [Example 102, N-hydroxy-4-(5-[4-(5-ethyl-2-(2-methoxyethyl)amino-1,3-thiazol-4-yl)phenoxy]pentoxy)-benzamidine], for which the inhibition at 1 µM is 96.4%.

For the compound `CNc1nc(-c2ccc(OCCCCCOc3ccc(C(=N)NO)cc3)cc2)c(C(C)C)s1` [Example 103, N-hydroxy-4-(5-[4-(5-isopropyl-2-methylamino-1,3-thiazol-4-yl)phenoxy]pentoxy)-benzamidine], the inhibition at 1 µM is 25.4%.

For `CCNc1nc(-c2ccc(OCCCCCOc3ccc(C(=N)NO)cc3)cc2)c(C(C)C)s1` [Example 104, N-hydroxy-4-(5-[4-(2-ethylamino-5-isopropyl-1,3-thiazol-4-yl)phenoxy]pentoxy)-benzamidine], the inhibition at 1 µM is 40%.

On to `CCCCc1sc(NC)nc1-c1ccc(OCCCCCOc2ccc(C(=N)NO)cc2)cc1` [Example 105, N-hydroxy-4-(5-[4-(5-butyl-2-methylamino-1,3-thiazol-4-yl)phenoxy]pentoxy)-benzamidine], for which the inhibition at 1 µM turned out to be 61.1%.

Turning to `CCCCc1sc(NCC)nc1-c1ccc(OCCCCCOc2ccc(C(=N)NO)cc2)cc1` [Example 106, N-hydroxy-4-(5-[4-(5-butyl-2-ethylamino-1,3-thiazol-4-yl)phenoxy]pentoxy)-benzamidine], the inhibition at 1 µM is 0%.

In the case of `CCNc1nc(-c2ccc(OCCCCCOc3ccc(C(=N)NO)cc3)cc2)c(Cc2ccccc2)s1` [Example 108, N-hydroxy-4-(5-[4-(5-benzyl-2-ethylamino-1,3-thiazol-4-yl)phenoxy]pentoxy)-benzamidine], the inhibition at 1 µM worked out at 25.4%.
